Measured values: article PMC10659437 (bioRxiv, 2023)

How the values were obtained:
Type in all cases: cell-based
[1] = molecular target: T1, human trace amine-associated receptor 1 (hTAAR1, hTA1) (Homo sapiens, UniProt Q96RJ0); test: GloSensor cAMP accumulation, hTA1-transfected HEK293T cells, with pocket mutants
T1 sequence (Q96RJ0 1-339): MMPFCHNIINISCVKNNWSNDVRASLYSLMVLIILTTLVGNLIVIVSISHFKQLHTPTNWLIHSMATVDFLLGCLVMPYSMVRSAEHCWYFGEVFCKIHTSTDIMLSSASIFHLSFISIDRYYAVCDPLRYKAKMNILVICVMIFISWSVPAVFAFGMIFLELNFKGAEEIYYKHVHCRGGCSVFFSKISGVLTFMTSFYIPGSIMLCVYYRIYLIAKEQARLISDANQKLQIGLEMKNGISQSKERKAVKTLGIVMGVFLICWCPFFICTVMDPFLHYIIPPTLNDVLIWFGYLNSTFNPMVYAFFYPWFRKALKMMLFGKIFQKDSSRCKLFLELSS

[2] = molecular target: T1, human trace amine-associated receptor 1 (hTAAR1, hTA1); test: GloSensor cAMP accumulation, hTA1-transfected HEK293T cells
[3] = molecular target: T1, human trace amine-associated receptor 1 (hTAAR1, hTA1); test: cryo-EM structure of the hTA1-Gs complex

SMILES | EC50 [2] | also measured
CN1CC2c3ccccc3Oc3ccc(Cl)cc3C2C1 (stereo not shown) [asenapine] |  | EC50 [1]: 6.56 ± 0.01 pEC50
NCCc1ccc(O)cc1 [tyramine] | 6.38 ± 0.04 pEC50 | 
CC[C@@H](C[C@H]1COC(N)=N1)c1ccccc1 [Ro5256390] |  | EC50 [3]: ~5 nM
Cc1c(F)cccc1[C@H]1COC(N)=N1 [Ro5263397] | 1.48 nM | 
